Literature values, collected in US9364497B2, “Treatment of cognitive disorders” (Isis Innovation Limited, priority 2010, dated 2016).

Assays:
[1] = system: normal participants with baseline tHcy levels >13 μmol/L; conditions: 0.8 mg/d for three years
[2] = system: mild cognitive impairment; conditions: MCI; over four years
[3] = system: subjects with mild cognitive impairment; conditions: MCI

## Nc1nc2ncc(CNc3ccc(C(=O)N[C@@H](CCC(=O)O)C(=O)O)cc3)nc2c(=O)[nH]1 [folic acid]
[1]
  effect on cognitive tests: beneficial effect on several cognitive tests

## CCN(C)C(=O)Oc1cccc([C@H](C)N(C)C)c1 [rivastigmine]
[2]
  benefit on cognitive function: no significant benefit
  benefit on the progression rate to Alzheimer's Disease: no significant benefit

## COc1ccc2c3c1O[C@H]1C[C@@H](O)C=C[C@@]31CCN(C)C2 [galantamine]
[3]
  deaths in treatment groups versus placebo: significantly greater number of deaths
